Experimental data: US20170172994A1, “COMPOSITIONS AND METHODS FOR TREATING BACTERIAL INFECTIONS” (WOCKHARDT LIMITED, priority 2013, published 2017)

Legend:
E. coli ATCC 25922 = assay: Time kill study (viability count); type: cell-based; settings: for Bacterial count: Compound of Formula (III) 2 μg/ml, alone or combined; for Bactericidal action (in words): E. coli ATCC 25922, standalone or combination, Tables 3 to 5
Procedure: (§1) The antibacterial effectiveness of various antibacterial agents in presence of a compound of Formula (III) was investigated and the results are detailed below. In a typical study, overnight cultures in Trypticase soya broth (TSB) were brought to log phase by 1 in 10 dilution in fresh cation adjusted Mueller Hinton Broth (MHB) and incubation for 2.5 hours at 35° C. in orbital shaker. Log phase cultures were diluted to desired inoculums in flasks with MHB, containing various drug concentrations. Flasks were incubated at 35° C. in orbital shaker with rotational speed of 125 rpm. Viability count was determined by 1 in 10 serial dilutions of samples in normal saline and surface spreading of 10 μl of dilutions in duplicate on Trypticase soya agar plates. Plates were incubated for 24 hours at 35° C. and colonies were enumerated to determine the colony forming units (CFU) per ml volume.

P. aeruginosa PAO1 = assay: Time kill study (viability count); type: cell-based; settings: for Bacterial count: Compound of Formula (III) 4 μg/ml, alone or combined; for Bactericidal action (in words): P. aeruginosa PAO1, standalone or combination, Tables 6 and 7
Procedure: as §1

With C[C@H]1[C@H](NC(=O)/C(=N\OC(C)(C)C(=O)O)c2csc(N)n2)C(=O)N1S(=O)(=O)O [Aztreonam] the Bacterial count (E. coli ATCC 25922; 0 hour, Aztreonam 1 μg/ml) was 7.47 log (CFU/ml), the Bacterial count (E. coli ATCC 25922; 2 hours, Aztreonam 1 μg/ml) was 7.48 log (CFU/ml) and the Bacterial count (E. coli ATCC 25922; 4 hours, Aztreonam 1 μg/ml) was 7.47 log (CFU/ml). For the same compound, the Bacterial count (E. coli ATCC 25922; 6 hours, Aztreonam 1 μg/ml) was 7.48 log (CFU/ml), the Bacterial count (E. coli ATCC 25922; 24 hours, Aztreonam 1 μg/ml) was 7.5 log (CFU/ml) and the “Bactericidal action (in words)” value (E. coli ATCC 25922) was “did not exhibit any bactericidal action”. For the same compound, the Bacterial count (P. aeruginosa PAO1; 0 hour, Aztreonam 2 μg/ml) was 5.74 log (CFU/ml), the Bacterial count (P. aeruginosa PAO1; 2 hours, Aztreonam 2 μg/ml) was 6.3 log (CFU/ml) and the Bacterial count (P. aeruginosa PAO1; 4 hours, Aztreonam 2 μg/ml) was 6.65 log (CFU/ml). The Bacterial count (P. aeruginosa PAO1; 6 hours, Aztreonam 2 μg/ml) was 6.54 log (CFU/ml), the Bacterial count (P. aeruginosa PAO1; 24 hours, Aztreonam 2 μg/ml) was 7.15 log (CFU/ml) and the “Bactericidal action (in words)” value (P. aeruginosa PAO1) was “did not exhibit any bactericidal action”.
With CO[C@@]1(NC(=O)Cc2cccs2)C(=O)N2C(C(=O)O)=C(COC(N)=O)CS[C@@H]21 [Cefoxitin] the Bacterial count (E. coli ATCC 25922; 0 hour, Cefoxitin 1 μg/ml) was 7.47 log (CFU/ml), the Bacterial count (E. coli ATCC 25922; 2 hours, Cefoxitin 1 μg/ml) was 7.11 log (CFU/ml) and the Bacterial count (E. coli ATCC 25922; 4 hours, Cefoxitin 1 μg/ml) was 6.7 log (CFU/ml). The Bacterial count (E. coli ATCC 25922; 6 hours, Cefoxitin 1 μg/ml) was 6.54 log (CFU/ml), the Bacterial count (E. coli ATCC 25922; 24 hours, Cefoxitin 1 μg/ml) was 9 log (CFU/ml) and the “Bactericidal action (in words)” value (E. coli ATCC 25922) was “did not exhibit any significant bactericidal action”.
With NC(=O)c1cc[n+](CC2=C(C(=O)O)N3C(=O)[C@@H](NC(=O)[C@@H](c4ccccc4)S(=O)(=O)[O-])[C@H]3SC2)cc1 [Cefsulodin] the Bacterial count (E. coli ATCC 25922; 0 hour, Cefsulodin 16 μg/ml) was 7.47 log (CFU/ml), the Bacterial count (E. coli ATCC 25922; 2 hours, Cefsulodin 16 μg/ml) was 8.4 log (CFU/ml) and the Bacterial count (E. coli ATCC 25922; 4 hours, Cefsulodin 16 μg/ml) was 8.8 log (CFU/ml). For the same compound, the Bacterial count (E. coli ATCC 25922; 6 hours, Cefsulodin 16 μg/ml) was 8.3 log (CFU/ml), the Bacterial count (E. coli ATCC 25922; 24 hours, Cefsulodin 16 μg/ml) was 9 log (CFU/ml) and the “Bactericidal action (in words)” value (E. coli ATCC 25922) was “did not exhibit any bactericidal action”. The Bacterial count (P. aeruginosa PAO1; 0 hour, Cefsulodin 2 μg/ml) was 6.81 log (CFU/ml), the Bacterial count (P. aeruginosa PAO1; 2 hours, Cefsulodin 2 μg/ml) was 6.48 log (CFU/ml) and the Bacterial count (P. aeruginosa PAO1; 4 hours, Cefsulodin 2 μg/ml) was 5.07 log (CFU/ml). The Bacterial count (P. aeruginosa PAO1; 6 hours, Cefsulodin 2 μg/ml) was 4.74 log (CFU/ml), the Bacterial count (P. aeruginosa PAO1; 24 hours, Cefsulodin 2 μg/ml) was 9 log (CFU/ml) and the “Bactericidal action (in words)” value (P. aeruginosa PAO1) was “failed to cause consistent killing till 24 hour”.
